Experimental data reported in patent publication US9790218B2, “Small molecule activators of calcium-activated chloride channels and methods of use” (The Regents of the University of California, priority 2011, dated 2017).

Legend:
[1] = tested on: CF human bronchial epithelial (CF HBE) cells; experiment: Short-circuit current in CF HBE cells; format: cell-based; details: no IL-4; UTP 100 μM
Procedure: FIG. 5A-B. Airway epithelial chloride secretion. FIG. 5A. Short-circuit current in CF HBE cells. Eact and UTP (100 μM) were added in control (left) and IL-4 (10 ng/ml, 24 h, middle) treated CF HBE cells. (right) Summary of Eact-induced, T16Ainh-A01-sensitive peak current (mean±S.E., n=6-8, * P<0.05). ENaC was inhibited by 10 μM amiloride. FIG. 5B. Eact (10 μM) and UTP (100 μM) induced CaCC Cl^− current measured in primary cultures of non-CF human tracheal gland (HTG) serous cells. (left and gmiddle) TMEM16A, CFTR and ENaC were inhibited by pretreatment with T16Ainh-A01, CFTRinh-172 and amiloride, respectively. Inset: TMEM16A immunoblot in whole cell homogenates of CF HBE and HTG cells. (right) Summary of UTP and Eact-induced peak current in the presence and absence of T16Ainh-A01 (mean±S.E., n=3, * P<0.05).
Tracheal and bronchial tissues were obtained from non-CF and CF patients following lung transplantation or from postmortem examinations performed within 24 h after death. […]
(§1) Snapwell inserts containing TMEM16A-expressing FRT, HBE, CF HBE or HTG cells were mounted in Ussing chambers (Physiologic Instruments, San Diego, Calif.). […] Apical membrane current (for FRT cells) and short-circuit current were measured using an EVC4000 Multi-Channel V/I Clamp (World Precision Instruments, Sarasota, Fla.) and recorded using PowerLab/8sp (AD Instruments, Castle Hill, Australia).

[2] = tested on: non-CF human tracheal gland (HTG) serous cells; experiment: Short-circuit current in human tracheal gland (HTG) serous cells; format: cell-based; details: Eact 10 μM, UTP 100 μM
Procedure: FIG. 5A-B. Airway epithelial chloride secretion. FIG. 5A. Short-circuit current in CF HBE cells. Eact and UTP (100 μM) were added in control (left) and IL-4 (10 ng/ml, 24 h, middle) treated CF HBE cells. (right) Summary of Eact-induced, T16Ainh-A01-sensitive peak current (mean±S.E., n=6-8, * P<0.05). ENaC was inhibited by 10 μM amiloride. FIG. 5B. Eact (10 μM) and UTP (100 μM) induced CaCC Cl^− current measured in primary cultures of non-CF human tracheal gland (HTG) serous cells. (left and gmiddle) TMEM16A, CFTR and ENaC were inhibited by pretreatment with T16Ainh-A01, CFTRinh-172 and amiloride, respectively. Inset: TMEM16A immunoblot in whole cell homogenates of CF HBE and HTG cells. (right) Summary of UTP and Eact-induced peak current in the presence and absence of T16Ainh-A01 (mean±S.E., n=3, * P<0.05). […]
as §1, with “Australia). […]” for “Australia).”

[3] = tested on: human bronchi submucosal glands; experiment: Airway submucosal gland fluid secretion in human bronchi; details: serosal application; 300 nM carbachol, 20 μM Eact
Procedure: FIG. 6A-C. Airway submucosal gland fluid secretion in human bronchi. FIG. 6A. TMEM16A immunohistochemistry in CF (left) and non-CF (right) human bronchi showing apical membrane expression in serous gland epithelial cells (arrows). Scale bar: 20 μm. FIG. 6B. Mucous (fluid) secretion in human bronchi. (top) Images of mucus bubbles formed under oil in response to basolateral application of 300 nM carbachol (CCh) and 20 μM Eact. TMEM16A was inhibited by 30 μM T16Ainh-A01. Individual fluid bubbles marked with arrowheads. Scale bar: 0.5 mm. (bottom) CCh and Eact-induced secretion rates. Where indicated, tissues were pre-treated with T16Ainh-A01 (30 μM). Each point is the average of measurements made from 20 glands (mean±S.E. * P<0.05). FIG. 6C. Summary of human gland fluid secretion rates measured at 20 min after addition of 20 μM Eact, and 30 min after application of 300 nM carbachol (CCh) and 10 μM forskolin (20-66 glands from 3 tracheas and 4 bronchus). In CF-bronchi, 6 glands from one donor were stimulated by Eact. […]
Similar staining was found in non-CF and CF human bronchi. Fluid secretion was measured in individual submucosal glands from the increasing size of mucus (fluid) bubbles in which airway fragments were mounted in a 37° C. perfusion chamber and the mucosal solution was covered with oil.

[4] = tested on: mouse ileal smooth muscle; experiment: Intestinal smooth muscle contraction, ex vivo mouse ileal segments; details: carbachol 1 μM
Procedure: FIG. 8A-C. Intestinal smooth muscle contraction. FIG. 8A. Representative traces from mouse ileal segments showing effects of T16Ainh-A01 (10 μM), carbachol (CCh, 1 μM) and Eact (10 μM). FIG. 8B. Effect of CCh (1 μM) and Eact (10 μM) following atropine (1 μM). FIG. 8C. Summary of contraction frequency (left), and resting and maximum tone (right) (mean±S.E., n=4-7, * P<0.05).
Wild type CD1 mice (age 8-10 weeks) were killed by avertin overdose (200 mg/kg). The ileum removed and washed with ice-cold HCO3^−-buffered solution. The ends of the ileal segments were tied with silk thread and connected to a force transducer. Beal segments were equilibrated for 60 min with a resting force of ˜1 mN, with changes of the bathing solution every 15 min. Tension was monitored continuously with a fixed-range precision force transducer (TSD, 125 C; Biopac, Goleta, Calif.) connected to a differential amplifier (DA 100B; Biopac). Data were recorded using MP100, Biopac digital acquisition system and analyzed using Acknowledge 3.5.7 software.
TMEM16A in expressed in the interstitial cells of Cajal, the pacemaker cells that control smooth muscle contraction dynamics in stomach and intestine (Huang et al., supra; Gomez-Pinilla et al. (2009) Am. J. Physiol. Gastrointest. Liver Physiol. 296, G1370-1381). The effect of Eact on mouse ileal smooth muscle contraction was investigated using an ex vivo intestinal preparation. […] Without wishing to be bound by theory, the constitutive TMEM16A activity in this ex vivo preparation could obscure Eact activity. To reveal Eact effects, atropine was first added to inhibit basal contractions. […] FIG. 8C summarizes data on contraction frequency, resting tone and maximal tone.

Structure (SMILES) | Cl^− current in untreated CF bronchial epithelial cells [1] | Cl^− current in HTG serous cells [2] | gland fluid secretion rate [3] | contraction frequency [4] | resting and maximum tone ([4]; Eact 10 μM, no atropine)
O=c1ccn([C@@H]2O[C@H](COP(=O)(O)OP(=O)(O)OP(=O)(O)O)[C@@H](O)[C@H]2O)c(=O)[nH]1 [UTP, reference compound] | produced a large Cl^− current | increased Cl^− current |  |  | 
C[N+](C)(C)CCOC(N)=O [carbachol] |  |  | significantly increased secretion | without change in contraction frequency | increased
